Measured values reported in PubChem BioAssay (NCI).
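96-well plates; 48 h exposure; 5 concentrations. Endpoints by linear interpolation between flanking doses. Not reached: highest tested concentration assigned. Definition used: TGI = concentration required for complete inhibition of growth.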

Experiments:
Test in all cases: NCI-60 cell line screen, 48 h
[1] = test system: UACC-62 melanoma
[2] = test system: SNB-19 CNS
[3] = test system: NCI-H522 lung
[4] = test system: T-47D breast
[5] = test system: RPMI-8226 leukemia
[6] = test system: MDA-N
[7] = test system: HS 578T breast
[8] = test system: KM20L2 colon
[9] = test system: UACC-257 melanoma
[10] = test system: BT-549 breast
[11] = test system: HOP-18 NSCLC
[12] = test system: U251 CNS
[13] = test system: COLO 205 colon
[14] = test system: SNB-75 CNS
[15] = test system: HCT-116 colon
[16] = test system: OVCAR-3 ovarian
[17] = test system: MCF7 breast
[18] = test system: CAKI-1 renal
[19] = test system: DLD-1 colon
[20] = test system: DMS 273 small cell lung
[21] = test system: UO-31 renal
[22] = test system: DMS 114 small cell lung
[23] = test system: OVCAR-4 ovarian
[24] = test system: SF-268 CNS
[25] = test system: DU-145 prostate
[26] = test system: LXFL 529 NSCLC
[27] = test system: M19-MEL melanoma
[28] = test system: SW-620 colon
[29] = test system: MDA-MB-231 breast
[30] = test system: 786-0 renal
[31] = test system: ACHN renal
[32] = test system: XF 498 CNS
[33] = test system: MALME-3M melanoma
[34] = test system: HOP-62 NSCLC
[35] = test system: EKVX NSCLC
[36] = test system: SK-MEL-28 melanoma
[37] = test system: SF-539 CNS
[38] = test system: LOX IMVI melanoma
[39] = test system: TK-10 renal
[40] = test system: SN12C renal
[41] = test system: PC-3 prostate
[42] = test system: HCC-2998 colon
[43] = test system: IGROV1 ovarian
[44] = test system: K-562 leukemia
[45] = test system: NCI/ADR-RES ovarian
[46] = test system: HL-60(TB) leukemia
[47] = test system: HT29 colon
[48] = test system: NCI-H226 lung
[49] = test system: CCRF-CEM leukemia
[50] = test system: SR leukemia
[51] = test system: OVCAR-5 ovarian
[52] = test system: SF-295 CNS
[53] = test system: A549 NSCLC
[54] = test system: HCT-15 colon
[55] = test system: M14 melanoma
[56] = test system: NCI-H460 lung
[57] = test system: HOP-92 NSCLC
[58] = test system: SK-OV-3 ovarian
[59] = test system: MDA-MB-435
[60] = test system: RXF-631 renal
[61] = test system: OVCAR-8 ovarian
[62] = test system: SK-MEL-5 melanoma
[63] = test system: A498 renal
[64] = test system: NCI-H23 lung
[65] = test system: KM12 colon
[66] = test system: RXF 393 renal
[67] = test system: SK-MEL-2 melanoma
[68] = test system: MOLT-4 leukemia
[69] = test system: SNB-78 CNS

SMILES: CCOC(=O)c1c(C)c(C)n2c1NC(=O)C2
- TGI [1]: > 100 µM
- TGI [2]: > 100 µM
- TGI [3]: > 68 µM
- TGI [4]: 70.7 µM
- TGI [5]: > 100 µM
- TGI [6]: > 100 µM
- TGI [7]: 70 µM
- TGI [8]: > 100 µM
- TGI [9]: > 100 µM
- TGI [10]: > 100 µM
- TGI [11]: > 100 µM
- TGI [12]: 97.7 µM
- TGI [13]: > 100 µM
- TGI [14]: > 74.7 µM
- TGI [15]: > 100 µM
- TGI [16]: > 100 µM
- TGI [17]: 84 µM
- TGI [18]: > 100 µM
- TGI [19]: > 100 µM
- TGI [20]: > 100 µM
- TGI [21]: > 100 µM
- TGI [22]: > 100 µM
- TGI [23]: > 100 µM
- TGI [24]: > 100 µM
- TGI [25]: 64.3 µM
- TGI [26]: > 100 µM
- TGI [27]: > 100 µM
- TGI [28]: > 100 µM
- TGI [29]: > 100 µM
- TGI [30]: 98.9 µM
- TGI [31]: > 100 µM
- TGI [32]: 61.1 µM
- TGI [33]: > 85.7 µM
- TGI [34]: > 100 µM
- TGI [35]: > 100 µM
- TGI [36]: > 100 µM
- TGI [37]: > 100 µM
- TGI [38]: > 100 µM
- TGI [39]: > 89.4 µM
- TGI [40]: > 100 µM
- TGI [41]: > 100 µM
- TGI [42]: > 100 µM
- TGI [43]: > 100 µM
- TGI [44]: > 100 µM
- TGI [45]: 81.5 µM
- TGI [46]: > 100 µM
- TGI [47]: > 100 µM
- TGI [48]: > 100 µM
- TGI [49]: > 100 µM
- TGI [50]: > 100 µM
- TGI [51]: > 100 µM
- TGI [52]: > 100 µM
- TGI [53]: > 100 µM
- TGI [54]: > 100 µM
- TGI [55]: > 100 µM
- TGI [56]: > 100 µM
- TGI [57]: > 100 µM
- TGI [58]: > 100 µM
- TGI [59]: > 100 µM
- TGI [60]: > 100 µM
- TGI [61]: > 100 µM
- TGI [62]: > 100 µM
- TGI [63]: > 100 µM
- TGI [64]: > 68.5 µM
- TGI [65]: > 100 µM
- TGI [66]: > 78.2 µM
- TGI [67]: > 100 µM
- TGI [68]: > 100 µM

SMILES: COC(=O)C1=C(c2ccc3c(c2)OCO3)OC(c2cc(OC)c(OC)c(OC)c2)C1 (stereo not given)
- TGI [1]: 19.2 µM
- TGI [2]: > 100 µM
- TGI [5]: > 100 µM
- TGI [9]: > 100 µM
- TGI [11]: > 100 µM
- TGI [12]: > 100 µM
- TGI [13]: 3.98 µM
- TGI [14]: > 100 µM
- TGI [15]: 85.4 µM
- TGI [16]: 4.26 µM
- TGI [18]: > 100 µM
- TGI [19]: > 100 µM
- TGI [20]: 58.8 µM
- TGI [21]: > 100 µM
- TGI [22]: 9.33 µM
- TGI [23]: > 100 µM
- TGI [24]: > 100 µM
- TGI [26]: > 100 µM
- TGI [27]: > 100 µM
- TGI [28]: > 100 µM
- TGI [30]: > 100 µM
- TGI [31]: > 100 µM
- TGI [32]: > 100 µM
- TGI [33]: > 100 µM
- TGI [34]: > 100 µM
- TGI [35]: > 100 µM
- TGI [36]: > 100 µM
- TGI [37]: 87.8 µM
- TGI [38]: > 100 µM
- TGI [69]: > 100 µM
- TGI [39]: > 100 µM
- TGI [40]: > 100 µM
- TGI [42]: > 100 µM
- TGI [43]: 9.53 µM
- TGI [44]: > 100 µM
- TGI [47]: 4.63 µM
- TGI [48]: > 100 µM
- TGI [49]: > 100 µM
- TGI [50]: > 100 µM
- TGI [51]: > 100 µM
- TGI [52]: > 100 µM
- TGI [53]: > 100 µM
- TGI [54]: 15.2 µM
- TGI [55]: 84.1 µM
- TGI [56]: > 100 µM
- TGI [57]: > 100 µM
- TGI [58]: 8.09 µM
- TGI [61]: 92.4 µM
- TGI [62]: 60.3 µM
- TGI [63]: 8.04 µM
- TGI [64]: > 100 µM
- TGI [68]: > 100 µM
